Experimental findings from US5756532A, “Aminomethyl-2 3 8 9-tetrahydro-7H-1 4-dioxino[2 3-E]-indol-8-ones and derivatives” (American Home Products Corporation, priority 1996, dated 1998) are described below.

Molecules are shown by their SMILES.

The ED50 is the dose at which the effect has come halfway, by size or by number of responders. By IC50 is commonly meant the concentration that gives 50% inhibition. High values mean a need for much substance, low ones inhibition by little substance.

Assay [1] concerns mouse locomotor activity. The assay can be described thus: Reduction of mouse locomotor activity (hypolocomotion). The settings on record: 20 min, sc, horizontal activity counts collected 10 to 20 minutes after dosing. Format: in vivo, mouse (male, CF-1). Here is the method: The antipsychotic activity of the compounds of the invention was further established by a determination of the compounds' ability to reduce mouse locomotor activity according to the method of Martin and Bendensky, J. Pharmacol. Exp. Therap. 229: 706-711, 1984, in which mice (male, CF-1, Charles River, 20-30 g) were injected with vehicle or various doses of each drug and locomotor activity was measured for 30 minutes using automated infrared activity monitors (Omnitech-8×8 inch open field) located in a darkened room. ED50 's were calculated from the horizontal activity counts collected from 10 to 20 minutes after dosing using a nonlinear regression analysis with inverse prediction.

Assay [2] concerns the target T1, dopamine D2 receptor (Rattus norvegicus, UniProt P61169).
T1 construct: homogenized rat striatal brain tissue; from tissue; host or cells: rat striatum (homogenate)
The assay can be described thus: Affinity for the dopamine D2 receptor (3H-quinpirole, rat striatal brain tissue homogenate). Format: binding. The settings on record: homogenized rat striatal brain tissue. The protocol: Affinity for the dopamine D2 receptor was established by a modification of the standard experimental test procedure of Seemen and Schaus, European Journal of Pharmacology 203: 105-109, 1991, wherein homogenized rat striatal brain tissue is incubated with ^3 H-quinpirole and various concentrations of test compound, filtered and washed and counted in a Betaplate scintillation counter.

T1 sequence (P61169 whole entry): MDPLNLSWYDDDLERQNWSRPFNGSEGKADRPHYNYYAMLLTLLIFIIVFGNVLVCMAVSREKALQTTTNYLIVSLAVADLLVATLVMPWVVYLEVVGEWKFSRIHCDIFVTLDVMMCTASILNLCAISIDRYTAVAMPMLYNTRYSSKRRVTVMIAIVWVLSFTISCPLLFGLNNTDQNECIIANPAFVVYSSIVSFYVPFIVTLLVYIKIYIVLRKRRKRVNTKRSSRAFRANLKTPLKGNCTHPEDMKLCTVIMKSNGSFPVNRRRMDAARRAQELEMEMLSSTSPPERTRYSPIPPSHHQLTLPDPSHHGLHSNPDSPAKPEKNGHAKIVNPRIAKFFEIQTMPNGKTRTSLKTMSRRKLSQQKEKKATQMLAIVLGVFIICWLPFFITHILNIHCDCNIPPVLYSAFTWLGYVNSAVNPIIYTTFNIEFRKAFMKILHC

Molecule `COc1ccc(CNC[C@H]2COc3ccc4c(c3O2)CC(=O)N4)cc1` [Example 17, 2-[(4-Methoxy-benzylamino)-methyl]-2,3,8,9-tetrahydro-7H-1,4-dioxino[2,3-e]indol-8-one] showed an ED50 in assay [1] of 0.027 mg/kg. The same molecule yielded a half-inhibitory concentration (IC50) in assay [2] of 0.68 nM.
In assay [1], `O=C1Cc2c(ccc3c2O[C@@H](CNCc2cccs2)CO3)N1` [Example 12, 2-{[(Thionphen-2-ylmethyl)-amino]-methyl}-2,3,8,9-tetrahydro-7H-1,4-dioxino[2,3-e]indol-8-one] returned a 50% effective dose (ED50) of 0.0005 mg/kg. The IC50 in assay [2] is 0.51 nM.
For the molecule `Cc1cc2c(c3c1NC(=O)C3)O[C@@H](CNCc1ccc(F)cc1)CO2` [Example 32], in assay [2], the 50% inhibitory concentration (IC50) amounted to 2.15 nM.
On the same count and under the same terms, the figure for `O=C1Cc2c(c(Cl)cc3c2O[C@@H](CNCc2ccc(Cl)cc2)CO3)N1` [Example 43, 6-Chloro-2-[(4-chloro-benzylamino)-methyl]-2,3,8,9-tetrahydro-7H-1,4-dioxino[2,3-e]indol-8-one] is 0.98 nM.
Still for that read-out and setting: the figure for `CCCCCNC[C@H]1COc2ccc3c(c2O1)CC(=O)N3` [Example 16, 2-(Pentylaminomethyl)-2,3,8,9-tetrahydro-7H-1,4-dioxino[2,3-e]indol-8-one] is 0.45 nM; for `O=C1Cc2c(ccc3c2O[C@@H](CNCc2cccc4ccccc24)CO3)N1` [Example 18, 2-(Napthalen-1-yl-methylamino-methyl)-2,3,8,9-tetrahydro-7H-1,4-dioxono[2,3-e]indol-8-one] it is 0.49 nM.
Turning to `O=C1CCc2c(ccc3c2O[C@@H](CNCc2ccccc2)CO3)N1` [Example 6, 2-(Benzylamino-methyl)-2,3,9,10-tetrahydro-7H-1,4-dioxino[2,3-f]quinolin-8-one], the IC50 in assay [2] was 12.3 nM.
Take `O=C1Cc2c(c(F)cc3c2O[C@@H](CNCc2ccccc2)CO3)N1` [Example 33, 2-(Benzylamino-methyl)-6-fluoro-2,3,8,9-tetrahydro-7H-1,4-dioxino[2,3-e]indol-8-one]: the 50% inhibitory concentration (IC50) in assay [2] was 0.57 nM.
The same measure, in the same setting: the figure for `O=C1Cc2c(ccc3c2O[C@@H](CNCc2ccc(C(F)(F)F)cc2)CO3)N1` [Example 19, 2-(4-Trifluoromethyl-benzylamino-methyl)-2,3,8,9-tetrahydro-7H-1,4-dioxino [2,3-e]indol-8-one] is 0.34 nM; for `O=C1Cc2c(ccc3c2O[C@@H](CNCCCOc2ccc4cccnc4c2)CO3)N1` [Example 13] it is 1.39 nM; for `NC[C@H]1COc2ccc3c(c2O1)CC(=O)N3` [Example 8, 2-Aminomethyl-2,3,8,9-tetrahydro-7H-1,4-dioxino[2,3-e]indol-8-one] it is 9.93 nM.
Take `O=C1Cc2c(c(F)cc3c2O[C@@H](CNCc2ccc(F)cc2)CO3)N1` [Example 34, 6-Fluoro-2-[(4-fluoro-benzylamino)-methyl]-2,3,8,9-tetrahydro-7H-1,4-dioxino[2,3-e]indol-8-one]: in assay [2], half-maximal inhibition (IC50) required 0.56 nM.
The same measure, in the same setting: the figure for `O=C1Cc2c(c(Cl)cc3c2O[C@@H](CNCc2ccccc2)CO3)N1` [Example 45, 2-(Benzylamino)-methyl-6-chloro-2,3,8,9-tetrahydro-7H-1,4-dioxino[2,3-e]indol-8-one] is 0.97 nM.
As for `O=C1Cc2c(ccc3c2O[C@@H](CNCCCc2c[nH]c4ccccc24)CO3)N1` [Example 3, 2-{[3-(Indol-3-yl)-propylamino]-methyl}-2,3,8,9-tetrahydro-7H-1,4-dioxino-[2,3-e]indol-8-one], in assay [1], the ED50 stood at 0.039 mg/kg. This molecule yielded an IC50 in assay [2] of 0.14 nM.
On to `O=C1Cc2c(c(F)cc3c2O[C@@H](CNCc2ccc(C(F)(F)F)cc2)CO3)N1` [Example 41, 6-Fluoro-2-[(4-trifluoromethyl-benzylamino)-methyl]-2,3,8,9-tetrahydro-7H-dioxino[2,3-e]indol-8-one], for which the midpoint of inhibition in assay [2], the IC50, lay at 0.56 nM.
Still for that read-out and setting: the figure for `O=C1Cc2c(c(F)cc3c2O[C@@H](CNCC24CC5CC(CC(C5)C2)C4)CO3)N1` [Example 38, 2-{[(Adamantan-1-ylmethyl)-amino]-methyl}-6-fluoro-2,3,8,9-tetrahydro-7H-1,4-dioxino[2,3-e]indol-8-one] is 1.08 nM; for `O=C1Cc2c(ccc3c2O[C@@H](CNCc2cccc(C(F)(F)F)c2)CO3)N1` [Example 25, 2-[(3-Trifluoromethyl-benzylamino)-methyl]-2,3,8,9-tetrahydro-7H-1,4-dioxino [2,3-e]indol-8-one] it is 1.04 nM.
In the case of `O=C1Cc2c(ccc3c2O[C@@H](CNCC2CCCCC2)CO3)N1` [Example 9, 2-(Cyclohexylmethylamino-methyl)-2,3,8,9-tetrahydro-7H-1,4-dioxino[2,3-e]indol-8-one], the IC50 in assay [2] was found to be 0.37 nM.
Still for that read-out and setting: the figure for `Cc1ccc(C=C2C(=O)Nc3c(F)cc4c(c32)O[C@@H](CNCc2ccc(C)cc2)CO4)cc1` [Example 35, 6-Fluoro-2-[(4-methyl-benzylamino)-methyl]-9-(4-methyl-benzylidene)-2,3.8.9-tetrahydro-7H-1,4-dioxino[2,3-e]indol-8-one] is 52.1 nM; for `Cc1cc2c(c3c1NC(=O)C3)O[C@@H](CNCc1ccccc1)CO2` [Example 31, 2-(Benzylamino-methyl)-6-methyl-2,3,8,9-tetrahydro-7H-1,4-dioxino[2,3-e]indol-8-one] it is 1.3 nM.
Same read-out and setting: the figure for `O=C1Cc2c(ccc3c2O[C@@H](CNCCCO)CO3)N1` [Example 5, 2-[(3-Hydroxy-propylamino)-methyl]-2,3,8,9-tetrahydro-7H-1,4-dioxino[2,3-e]indol-8-one] is 1.42 nM; for `O=C1Nc2ccc3c(c2C1=O)O[C@@H](CNCc1ccccc1)CO3` [Example 26] it is 0.52 nM.
The same measure, in the same setting: the figure for `O=C1Cc2c(c(F)cc3c2O[C@@H](CNCc2ccc(Cl)cc2)CO3)N1` [Example 40, 2-[(4-Chloro-benzylamino)-methyl]-6-fluoro-2,3,8,9-tetrahydro-7H-1,4-dioxino[2,3-e]indol-8-one] is 0.53 nM; for `O=C1Cc2c(ccc3c2O[C@@H](CNCCc2cccnc2)CO3)N1` [Example 10, 2-[(2-Pyridin-3yl-ethylamino)-methyl]-2,3,8,9-tetrahydro-7H-1,4-dioxino-[2,3-e]indol-8one] it is 3.06 nM.
`O=C1Cc2c(ccc3c2O[C@@H](CNCCCCc2ccccc2)CO3)N1` [Example 21, 2-(4-Phenyl-butylamino)-methyl-2,3,8,9-tetrahydro-7H-1,4-dioxino[2,3-e]indol-8-one]: the IC50 in assay [2] turned out to be 0.33 nM.
In assay [1], `CN(C)c1cccc(OCCCNC[C@H]2COc3ccc4c(c3O2)CC(=O)N4)c1` [Example 11] had a median effective dose (ED50) of 0.0138 mg/kg. In assay [2], the IC50 came to 1.3 nM.
In assay [1], `O=C1Cc2c(ccc3c2O[C@H](CNCc2ccccc2)CO3)N1` [Example 15, 2-(Benzylamino-methyl)-2,3,8,9-tetrahydro-7H-4-dioxino[2,3-e]indol-8-one] showed a median effective dose (ED50) of 0.09 mg/kg. Also, inhibition in assay [2] was half-maximal at 3.33 nM (IC50).
Take `CN(C)c1cccc(OCCCNC[C@H]2COc3cc(F)c4c(c3O2)CC(=O)N4)c1` [Example 37, 2-{[3-(3-Dimethylamino-phenoxy)-propylamino]-methyl}-6-fluoro-2,3,8,9-tetrahydro-7H-1,4-dioxino[2,3-e]indol-8-one]: in assay [2], the half-maximal inhibitory concentration (IC50) was found to be 0.51 nM.
Same read-out and setting: the figure for `O=C1Nc2ccc3c(c2C1=Cc1ccccc1)O[C@@H](CNCc1ccccc1)CO3` [Example 2, 2-(Benzylamino-methyl)-1-benzylidene-2,3,8,9-tetrahydro-7H-1,4-dioxino[2,3-e]indol-8-one] is 2.8 nM.
Take `Cc1ccc(CNC[C@H]2COc3cc(Cl)c4c(c3O2)CC(=O)N4)cc1` [Example 44, 6-Chloro-2-[(4-methyl-benzylamino)-methyl]-2,3,8,9-tetrahydro-7H-1,4-dioxino[2,3-e]indol-8-one]: the IC50 in assay [2] amounted to 1.43 nM.
Take `O=C1Nc2ccc3c(c2C1=Cc1ccc(F)cc1)O[C@@H](CNCc1ccc(F)cc1)CO3` [Example 22]: in assay [2], it took 17.7 nM to reach half-maximal inhibition (IC50).
In assay [2], `O=C1Cc2c(c(F)cc3c2O[C@@H](CNCCCCc2ccccc2)CO3)N1` [Example 42, 6-Fluoro-2-[(4-phenyl-butylamino)-methyl]-2,3,8,9-tetrahydro-7H-1,4-dioxino[2,3-e]indol-8-one] had an IC50 of 0.67 nM.
On the same count and under the same terms, the figure for `O=C1Cc2c(c(Cl)cc3c2O[C@@H](CNCc2ccc(F)cc2)CO3)N1` [Example 46, 6-Chloro-2-[(4-fluoro-benzylaimino)-methyl]-2,3,8,9-tetrahydro-7H-1,4-dioxino[2,3-e_]indol-8-one] is 1 nM; for `Cc1ccc(CNC[C@H]2COc3cc(F)c4c(c3O2)CC(=O)N4)cc1` [Example 36, 6-Fluoro-2-[(4-methyl-benzylamino)-methyl]-2,3,8,9-tetrahydro-7H-1,4-dioxino[2,3-e]indol-8-one] it is 0.35 nM; for `O=C1Cc2c(ccc3c2O[C@@H](CNCc2ccc(F)cc2)CO3)N1` [Example 20, 2-(4-Fluoro-benzylamino)-methyl-2,3,8,9-tetrahydro-7H-1,4-dioxino[2,3-e]-indol-8-one] it is 0.29 nM.
The same measure, in the same setting: the figure for `Cc1cc2c(c3c1NC(=O)C3)O[C@@H](CNCc1cccs1)CO2` [Example 29, 2-{[(Thiophene-2-ylmethyl)-amino]-methyl}-6-methyl-2,3,8,9-tetrahydro-7H-1,4-dioxino[2,3-e]indol-8-one] is 3.3 nM.
As to `O=C1Cc2c(ccc3c2O[C@@H](CNCCc2c[nH]c4ccccc24)CO3)N1` [Example 4], the IC50 in assay [2] worked out at 1.79 nM.
On the same count and under the same terms, the figure for `CC(=O)Nc1cccc(OCCCNC[C@H]2COc3ccc4c(c3O2)CC(=O)N4)c1` [Example 23, N-(3-{3-[(8-Oxo-2,3,8,9-tetrahydro-7H-1,4-dioxinor[2,3-e]indol-2-ylmethyl)-amino]-propoxy}-phenyl)-acetamide] is 0.89 nM.
